Reference: patent US10206394B2, “Herbicidal compounds” (Syngenta Participations AG, priority 2014, dated 2019)
Read-outs that look alike come from different tables or passages of the source.

Assays:
Assay in all cases: Glasshouse assay for herbicidal activity (pre- and post-emergence), percentage phytotoxicity
Assay type in all cases: in vivo
[1] = test system: Echinochloa crus-galli (ECHCG); details: Echinochloa crus-galli
Method in brief: (§1)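 Visually rated damage, 0–100%. PRE spray 1 d after sowing, scored 20 DAA; POST spray ~12 d, scored 15 DAA. Glasshouse at 65% humidity, 16 h day.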

Avena fatua (AVEFA) = details: Avena fatua
Method in brief: as §1

[2] = test system: Alopecurus myosuroides (ALOMY); details: Alopecurus myosuroides
Method in brief: as §1

Lolium perenne (LOLPE) = details: Lolium perenne
Method in brief: as §1

`C#CCN(C)C(=O)CC1CC(=O)C(c2c(C)cc(-n3cc(Cl)cn3)cc2C)C1=O` (centres unmarked) [Compound B230] showed a pest or weed control at 250 g/ha ([1]; post-emergence, 360 h, POST-emergence, rate 250 g/ha, visual score 15 DAA (100%=total damage, 0%=no damage), read-out: Post-emergence herbicidal activity (percentage phytotoxicity) ECHCG POST) of 100%, a pest or weed control at 250 g/ha ([1]; pre-emergence, 480 h, PRE-emergence, rate 250 g/ha, visual score 20 DAA (100%=total damage, 0%=no damage), read-out: Pre-emergence herbicidal activity (percentage phytotoxicity) ECHCG PRE) of 100% and a pest or weed control at 250 g/ha (Avena fatua (AVEFA); post-emergence, 360 h, POST-emergence, rate 250 g/ha, visual score 15 DAA (100%=total damage, 0%=no damage), read-out: Post-emergence herbicidal activity (percentage phytotoxicity) AVEFA POST) of 100%. It also gave a pest or weed control at 250 g/ha (Avena fatua (AVEFA); pre-emergence, 480 h, PRE-emergence, rate 250 g/ha, visual score 20 DAA (100%=total damage, 0%=no damage), read-out: Pre-emergence herbicidal activity (percentage phytotoxicity) AVEFA PRE) of 90%, a pest or weed control at 250 g/ha ([2]; post-emergence, 360 h, POST-emergence, rate 250 g/ha, visual score 15 DAA (100%=total damage, 0%=no damage), read-out: Post-emergence herbicidal activity (percentage phytotoxicity) ALOMY POST) of 100% and a pest or weed control at 250 g/ha ([2]; pre-emergence, 480 h, PRE-emergence, rate 250 g/ha, visual score 20 DAA (100%=total damage, 0%=no damage), read-out: Pre-emergence herbicidal activity (percentage phytotoxicity) ALOMY PRE) of 90%. It also gave a pest or weed control at 250 g/ha (Lolium perenne (LOLPE); post-emergence, 360 h, POST-emergence, rate 250 g/ha, visual score 15 DAA (100%=total damage, 0%=no damage), read-out: Post-emergence herbicidal activity (percentage phytotoxicity) LOLPE POST) of 90% and a pest or weed control at 250 g/ha (Lolium perenne (LOLPE); pre-emergence, 480 h, PRE-emergence, rate 250 g/ha, visual score 20 DAA (100%=total damage, 0%=no damage), read-out: Pre-emergence herbicidal activity (percentage phytotoxicity) LOLPE PRE) of 90%.

`COCC(C)NC(=O)CC1CC(=O)C(c2c(C)cc(-c3ncc(Cl)cc3F)cc2C)C1=O` (centres unmarked) [Compound B121] gave a pest or weed control at 250 g/ha ([1]; post-emergence, 360 h, 250 g/ha, post-emergence, 15 DAA, visual assessment (100%=total damage, 0%=no damage), read-out: Post-emergence herbicidal activity (percentage phytotoxicity) ECHCG POST) of 100%, a pest or weed control at 250 g/ha ([1]; pre-emergence, 480 h, 250 g/ha, pre-emergence, 20 DAA, visual assessment (100%=total damage, 0%=no damage), read-out: Pre-emergence herbicidal activity (percentage phytotoxicity) ECHCG PRE) of 100% and a pest or weed control at 250 g/ha (Avena fatua (AVEFA); post-emergence, 360 h, 250 g/ha, post-emergence, 15 DAA, visual assessment (100%=total damage, 0%=no damage), read-out: Post-emergence herbicidal activity (percentage phytotoxicity) AVEFA POST) of 100%. It also gave a pest or weed control at 250 g/ha (Avena fatua (AVEFA); pre-emergence, 480 h, 250 g/ha, pre-emergence, 20 DAA, visual assessment (100%=total damage, 0%=no damage), read-out: Pre-emergence herbicidal activity (percentage phytotoxicity) AVEFA PRE) of 90%, a pest or weed control at 250 g/ha ([2]; post-emergence, 360 h, 250 g/ha, post-emergence, 15 DAA, visual assessment (100%=total damage, 0%=no damage), read-out: Post-emergence herbicidal activity (percentage phytotoxicity) ALOMY POST) of 100% and a pest or weed control at 250 g/ha ([2]; pre-emergence, 480 h, 250 g/ha, pre-emergence, 20 DAA, visual assessment (100%=total damage, 0%=no damage), read-out: Pre-emergence herbicidal activity (percentage phytotoxicity) ALOMY PRE) of 100%. For the same compound, the pest or weed control at 250 g/ha (Lolium perenne (LOLPE); post-emergence, 360 h, 250 g/ha, post-emergence, 15 DAA, visual assessment (100%=total damage, 0%=no damage), read-out: Post-emergence herbicidal activity (percentage phytotoxicity) LOLPE POST) was 100% and the pest or weed control at 250 g/ha (Lolium perenne (LOLPE); pre-emergence, 480 h, 250 g/ha, pre-emergence, 20 DAA, visual assessment (100%=total damage, 0%=no damage), read-out: Pre-emergence herbicidal activity (percentage phytotoxicity) LOLPE PRE) was 100%.

For `Cc1cc(C)c(C2C(=O)CC(CC(=O)NCC3CCOCC3)C2=O)c(C)c1` (centres unmarked) [Compound A13], the pest or weed control at 250 g/ha ([1]; post-emergence, 360 h, Rate 250 g/ha, post-emergence, assessed visually 15 DAA, 100%=total damage, 0%=no damage, read-out: Post-emergence herbicidal activity (percentage phytotoxicity) ECHCG POST) was 80%, the pest or weed control at 250 g/ha ([1]; pre-emergence, 480 h, Rate 250 g/ha, pre-emergence, assessed visually 20 DAA, 100%=total damage, 0%=no damage, read-out: Pre-emergence herbicidal activity (percentage phytotoxicity) ECHCG PRE) was 100% and the pest or weed control at 250 g/ha (Avena fatua (AVEFA); post-emergence, 360 h, Rate 250 g/ha, post-emergence, assessed visually 15 DAA, 100%=total damage, 0%=no damage, read-out: Post-emergence herbicidal activity (percentage phytotoxicity) AVEFA POST) was 70%. For the same compound, the pest or weed control at 250 g/ha (Avena fatua (AVEFA); pre-emergence, 480 h, Rate 250 g/ha, pre-emergence, assessed visually 20 DAA, 100%=total damage, 0%=no damage, read-out: Pre-emergence herbicidal activity (percentage phytotoxicity) AVEFA PRE) was 40%, the pest or weed control at 250 g/ha ([2]; post-emergence, 360 h, Rate 250 g/ha, post-emergence, assessed visually 15 DAA, 100%=total damage, 0%=no damage, read-out: Post-emergence herbicidal activity (percentage phytotoxicity) ALOMY POST) was 80% and the pest or weed control at 250 g/ha ([2]; pre-emergence, 480 h, Rate 250 g/ha, pre-emergence, assessed visually 20 DAA, 100%=total damage, 0%=no damage, read-out: Pre-emergence herbicidal activity (percentage phytotoxicity) ALOMY PRE) was 50%. It also gave a pest or weed control at 250 g/ha (Lolium perenne (LOLPE); post-emergence, 360 h, Rate 250 g/ha, post-emergence, assessed visually 15 DAA, 100%=total damage, 0%=no damage, read-out: Post-emergence herbicidal activity (percentage phytotoxicity) LOLPE POST) of 80% and a pest or weed control at 250 g/ha (Lolium perenne (LOLPE); pre-emergence, 480 h, Rate 250 g/ha, pre-emergence, assessed visually 20 DAA, 100%=total damage, 0%=no damage, read-out: Pre-emergence herbicidal activity (percentage phytotoxicity) LOLPE PRE) of 70%.

Work on `CCCCCCCNC(=O)CC1CC(=O)C(c2c(C)cc(C)cc2C)C1=O` (centres unmarked) [Compound A178] yielded a pest or weed control at 250 g/ha ([1]; post-emergence, 360 h, post-emergence, 250 g/ha, 15 DAA, visual score (100%=total damage; 0%=no damage), read-out: ECHCG POST herbicidal activity (percentage phytotoxicity)) of 40%, a pest or weed control at 250 g/ha ([1]; pre-emergence, 480 h, pre-emergence, 250 g/ha, 20 DAA, visual score (100%=total damage; 0%=no damage), read-out: ECHCG PRE herbicidal activity (percentage phytotoxicity)) of 80% and a pest or weed control at 250 g/ha (Avena fatua (AVEFA); post-emergence, 360 h, post-emergence, 250 g/ha, 15 DAA, visual score (100%=total damage; 0%=no damage), read-out: AVEFA POST herbicidal activity (percentage phytotoxicity)) of 70%. The pest or weed control at 250 g/ha (Avena fatua (AVEFA); pre-emergence, 480 h, pre-emergence, 250 g/ha, 20 DAA, visual score (100%=total damage; 0%=no damage), read-out: AVEFA PRE herbicidal activity (percentage phytotoxicity)) was 0%, the pest or weed control at 250 g/ha ([2]; post-emergence, 360 h, post-emergence, 250 g/ha, 15 DAA, visual score (100%=total damage; 0%=no damage), read-out: ALOMY POST herbicidal activity (percentage phytotoxicity)) was 70% and the pest or weed control at 250 g/ha ([2]; pre-emergence, 480 h, pre-emergence, 250 g/ha, 20 DAA, visual score (100%=total damage; 0%=no damage), read-out: ALOMY PRE herbicidal activity (percentage phytotoxicity)) was 20%. It also gave a pest or weed control at 250 g/ha (Lolium perenne (LOLPE); post-emergence, 360 h, post-emergence, 250 g/ha, 15 DAA, visual score (100%=total damage; 0%=no damage), read-out: LOLPE POST herbicidal activity (percentage phytotoxicity)) of 70% and a pest or weed control at 250 g/ha (Lolium perenne (LOLPE); pre-emergence, 480 h, pre-emergence, 250 g/ha, 20 DAA, visual score (100%=total damage; 0%=no damage), read-out: LOLPE PRE herbicidal activity (percentage phytotoxicity)) of 80%.
